Source: patent US4439426A, “Semisynthetic macrolidic antibiotics, intermediate compounds for their preparation and related pharmaceutical compositions containing them” (priority 1981, dated 1984)

What was measured:
Type in all cases: cell-based
[1] = system: Acholeplasma laidlawii ATCC 23206 LRP 204; assay: Bacteriostatic power in solid medium (MIC); conditions: Acholeplasma laidlawii, ATCC23206; solid medium; read-out: Minimum inhibiting concentration
Source text: (§1) the bacteriostatic power, expressed as the minimum inhibiting concentration (MIC) against both aerobic and anaerobic, Gram positive and Gram negative, bacterial stocks: the related results are reported in the tables 2 and 3.

[2] = system: Bacillus subtilis LRP 25; assay: Bacteriostatic power in solid medium (MIC); conditions: Bacillus subtilis, LRP25; solid medium; read-out: Minimum inhibiting concentration
Source text: as §1

[3] = system: Bacteroides fragilis ATCC 23745 LRP 205; assay: Bacteriostatic power in solid medium (MIC); conditions: Bacteroides fragilis, ATCC23745; solid medium; anaerobic; read-out: Minimum inhibiting concentration
Source text: as §1

[4] = system: Corynebacterium diphteriae LRP 24; assay: Bacteriostatic power in solid medium (MIC); conditions: Corynebacterium, LRP24; solid medium; read-out: Minimum inhibiting concentration
Source text: as §1

[5] = system: Escherichia coli LRP 50; assay: Bacteriostatic power in solid medium (MIC); conditions: Escherichia coli, LRP50; solid medium; read-out: Minimum inhibiting concentration
Source text: as §1

[6] = system: Fusobacteriumnecrophroum ATCC 27852 LRP 210; assay: Bacteriostatic power in solid medium (MIC); conditions: solid medium; anaerobic; read-out: Minimum inhibiting concentration
Source text: as §1

[7] = system: Haemophilus influenzae ATCC 19418 LRP 213; assay: Bacteriostatic power in solid medium (MIC); conditions: Haemophilus influenzae, ATCC19418, read-out: Minimum inhibiting concentration
Source text: as §1

[8] = system: Klelsiella pneumoniae LRP 54; assay: Bacteriostatic power in solid medium (MIC); conditions: solid medium; read-out: Minimum inhibiting concentration
Source text: as §1

[9] = system: Micrococcus luteus ATCC 15957 LRP 193; assay: Bacteriostatic power in solid medium (MIC); conditions: Micrococcus luteus, ATCC15957; solid medium; Erythromycin resistant; read-out: Minimum inhibiting concentration
Source text: as §1

[10] = system: Micrococcus luteus ATCC 9341 LRP 6; assay: Bacteriostatic power in solid medium (MIC); conditions: Micrococcus luteus, ATCC9341; solid medium; read-out: Minimum inhibiting concentration
Source text: as §1

[11] = system: Mycoplasma hominis I ATCC 14027 LRP 211; assay: Bacteriostatic power in solid medium (MIC); conditions: Metamycoplasma hominis, ATCC14027; solid medium; read-out: Minimum inhibiting concentration
Source text: as §1

[12] = system: Neisseria gonorrhoeae ATCC 19424 LRP 214; assay: Bacteriostatic power in solid medium (MIC); conditions: Neisseria gonorrhoeae, ATCC19424; solid medium; read-out: Minimum inhibiting concentration
Source text: as §1

[13] = system: Proteus vulgaris ATCC 6380 LRP 13; assay: Bacteriostatic power in solid medium (MIC); conditions: Proteus vulgaris, ATCC6380; solid medium; read-out: Minimum inhibiting concentration
Source text: as §1

[14] = system: Pseudomonas aeruginosa LRP 9; assay: Bacteriostatic power in solid medium (MIC); conditions: Pseudomonas aeruginosa, LRP9; solid medium; read-out: Minimum inhibiting concentration
Source text: as §1

[15] = system: Shigella sonnei LRP 5; assay: Bacteriostatic power in solid medium (MIC); conditions: LRP5, read-out: Minimum inhibiting concentration
Source text: as §1

[16] = system: Staphylococcus aureus ATCC 14154 LRP 78; assay: Bacteriostatic power in solid medium (MIC); conditions: Staphylococcus aureus, ATCC14154, read-out: Minimum inhibiting concentration
Source text: as §1

[17] = system: Staphylococcus aureus ATCC 6538P LRP 14; assay: Bacteriostatic power in solid medium (MIC); conditions: Staphylococcus aureus, ATCC6538P; solid medium; Penycilline resistant; read-out: Minimum inhibiting concentration
Source text: as §1

[18] = system: Staphylococcus aureus ATCC 6538P LRP 39; assay: Bacteriostatic power in solid medium (MIC); conditions: Staphylococcus aureus, ATCC6538P; solid medium; read-out: Minimum inhibiting concentration
Source text: as §1

[19] = system: Streptococcus faecalis LRP 7; assay: Bacteriostatic power in solid medium (MIC); conditions: Enterococcus faecalis, LRP7; solid medium; read-out: Minimum inhibiting concentration
Source text: as §1

[20] = system: Streptococcus faecalis subsp. zymogenes ATCC 12958 LRP 61; assay: Bacteriostatic power in solid medium (MIC); conditions: Enterococcus faecalis, ATCC12958; solid medium; read-out: Minimum inhibiting concentration
Source text: as §1

[21] = system: Streptococcus pneumoniae ATCC 6303 LRP 35; assay: Bacteriostatic power in solid medium (MIC); conditions: Streptococcus pneumoniae, ATCC6303; solid medium; read-out: Minimum inhibiting concentration
Source text: as §1

[22] = system: Streptococcus pneumoniae ATCC 6303 LRP 52; assay: Bacteriostatic power in solid medium (MIC); conditions: Streptococcus pneumoniae, ATCC6303; solid medium; read-out: Minimum inhibiting concentration
Source text: as §1

[23] = system: Streptococcus pneumoniae ATCC 6303 LRP 53; assay: Bacteriostatic power in solid medium (MIC); conditions: Streptococcus pneumoniae, ATCC6303; solid medium; read-out: Minimum inhibiting concentration
Source text: as §1

[24] = system: Streptococcus pyogenes ATCC 8668 LRP 197; assay: Bacteriostatic power in solid medium (MIC); conditions: Streptococcus pyogenes, ATCC8668; solid medium; read-out: Minimum inhibiting concentration
Source text: as §1

[25] = system: Streptococcus pyogenes ATCC 8668 LRP 34; assay: Bacteriostatic power in solid medium (MIC); conditions: Streptococcus pyogenes, ATCC8668; solid medium; read-out: Minimum inhibiting concentration
Source text: as §1

[26] = system: Clostridium perfrigens ATCC 3624 LRP 206; assay: microbe, parasite or virus in culture; conditions: ATCC3624, solid medium, anaerobic, read-out: Minimum inhibiting concentration
Source text: as §1

[27] = system: Salmonella typhy LRP 8; assay: microbe, parasite or virus in culture; conditions: LRP8, solid medium, read-out: Minimum inhibiting concentration
Source text: as §1

[28] = system: Corynebacterium diphteriae LRP 24; assay: Bacteriostatic power in liquid medium (MIC); conditions: Corynebacterium, LRP24; liquid medium; read-out: Minimum inhibiting concentration
Source text: as §1

[29] = system: Staphylococcus aureus ATCC 6538 P LRP 39; assay: Bacteriostatic power in liquid medium (MIC); conditions: Staphylococcus aureus, ATCC6538; liquid medium; read-out: Minimum inhibiting concentration
Source text: as §1

[30] = system: Streptococcus faecalis subs. zymogenes ATCC 12958 LRP 61; assay: Bacteriostatic power in liquid medium (MIC); conditions: Enterococcus faecalis, ATCC12958; liquid medium; read-out: Minimum inhibiting concentration
Source text: as §1

[31] = system: Streptococcus pneumoniae ATCC 6303 LRP 35; assay: Bacteriostatic power in liquid medium (MIC); conditions: Streptococcus pneumoniae, ATCC6303; liquid medium; read-out: Minimum inhibiting concentration
Source text: as §1

[32] = system: Streptococcus pyogenes ATCC 8668 LRP 34; assay: Bacteriostatic power in liquid medium (MIC); conditions: Streptococcus pyogenes, ATCC8668; liquid medium; read-out: Minimum inhibiting concentration
Source text: as §1

[33] = system: Corynebacterium diphteriae LRP 24; assay: Minimum bactericidal concentration (MBC)
Source text: (§2) the bacterial power, expressed as the minimum bactericidal power (MBC) against some Gram positive aerobic stocks (table 5).

[34] = system: Staphylococcus aureus ATCC 6538 P LRP 39; assay: Minimum bactericidal concentration (MBC)
Source text: as §2

[35] = system: Streptococcus faecalis subs. zymogenes LRP 61; assay: Minimum bactericidal concentration (MBC)
Source text: as §2

[36] = system: Streptococcus pneumoniae ATCC 6303 LRP 35; assay: Minimum bactericidal concentration (MBC)
Source text: as §2

[37] = system: Streptococcus pyogenes ATCC 8668 LRP 34; assay: Minimum bactericidal concentration (MBC)
Source text: as §2

CC[C@H]1OC(=O)[C@H](C)[C@@H](O[C@H]2C[C@@](C)(OC)[C@@H](O)[C@H](C)O2)[C@H](C)[C@@H](O[C@@H]2O[C@H](C)C[C@H](N(C)C)[C@H]2O)[C@](C)(O)C[C@@H](C)C(=O)[C@H](C)[C@@H](O)[C@H]1C [Erythromycin B, reference compound]
0.195 µg/mL: MIC [3] | MIC [17] | MIC [19] | MIC [20] | MIC [29] | MBC ([33]; Corynebacterium, LRP24, read-out: Minimum bactericidal concentration (MBC)) | MBC ([36]; Streptococcus pneumoniae, ATCC6303, read-out: Minimum bactericidal concentration (MBC)) | MBC ([37]; Streptococcus pyogenes, ATCC8668, read-out: Minimum bactericidal concentration (MBC))
4: MBC/MIC [36]
0.39 µg/mL: MIC [30]
8: MBC/MIC [37]
32: MBC/MIC [34]
0.006 µg/mL: MIC [10]
0.097 µg/mL: MIC [1] | MIC [12] | MIC [18]
0.012 µg/mL: MIC [4] | MIC [28]
25 µg/mL: MIC [5] | MIC [8] | MIC [9] | MIC [11] | MIC [13] | MIC [14] | MIC [15] | MIC [16] | MIC [27]
6.25 µg/mL: MIC [6] | MIC [7] | MBC ([34]; Staphylococcus aureus, ATCC6538, read-out: Minimum bactericidal concentration (MBC)) | MBC ([35]; Enterococcus faecalis, read-out: Minimum bactericidal concentration (MBC))
1.56 µg/mL: MIC [26]
16: MBC/MIC [33] | MBC/MIC [35]
0.024 µg/mL: MIC [21] | MIC [22] | MIC [23] | MIC [24] | MIC [25] | MIC [32]
0.049 µg/mL: MIC [2] | MIC [31]
